US11440907B1 (Merck Patent GmbH, priority 2018, dated 2022)

Each compound was assayed on XBP1(u)-luciferase splicing reporter in HepG2 hepatoma cells (assay: HepG2 XBP1 reporter assay (XBP1(u)-Luc)). Conditions: Homo sapiens, 6 h, six hours after addition of compound.
Type: cell-based
Description: HepG2 XBP1 Reporter Assay
HepG2 hepatoma cells were transduced with a retrovirus encoding the cDNA for unspliced (u) XBP1, which contains a non-processed intron, fused to the cDNA for firefly luciferase. Upon induction of ER stress, the non-processed intron of XBP1(u) is spliced out by active IRE1alpha endonuclease. The resulting spliced (s) XBP1 is now in frame with luciferase which causes the production of active luciferase protein, resulting in bioluminescence
HepG2 XBP1(u)-Luc cells were plated […] Cultured cells with a stably transfected reporter construct were plated at approximately 30,000 cells per well into 96 well multi-well plates for twenty four hours. The testing compounds were then added to the wells in 3-fold serial dilutions using a twenty seven micromolar top concentration. A series of control wells for each cell type received only compound solvent. Six hours after the addition of compound, reporter activity for luciferase was assayed, by addition of the SteadyGlo luminescence reagent (Promega). The reporter luminescence activity was measured using Pherastar plate reader (BMG Labtech). Readings was normalized to DMSO only treated cells, and normalized activities were then used in the IC50 calculations. The HepG2 XBP1 reporter assay data are summarized in Tables 3-5: A<0.6 μM; 0.6 μM≤B<2.0 μM; 2.0 μM≤C<5.0 μM; D≥5.0 μM.

| SMILES | IC50 [nM] |
| --- | --- |
| Cc1cc(N2CCCOC[C@@H]2c2cc3c(cc2Cl)OCC2(CC2)CO3)nc(N)n1 [D-16] | 600 to 2000 |
| COc1cc(C2COCCCN2c2cc(C)nc(N)n2)c(Cl)cc1OCC(=O)NC(C)(C)C [D-32] | 600 to 2000 |

Same assay, conditions: Homo sapiens, 6 hours after compound addition, Table 4

| SMILES | IC50 [nM] |
| --- | --- |
| CSCOc1ccc(C2COCCCN2c2cc(C)nc(N)n2)c(Cl)c1 (stereo not shown) [C-105, 4-[3-(2-Chloro-4-methylsulfanylmethoxy-phenyl)-[1,4]oxazepan-4-yl]-6-methyl-pyrimidin-2-ylamine] | < 600 |
| CC[C@@H]1COC[C@@H](c2ccc(CS(C)(=O)=O)cc2Cl)N(c2cc(C)nc(N)n2)C1 [C-110] | ≥ 5000 |
| Cc1cc(N2CCCOCC2c2cc(C)c(N3CCCC3)cc2Cl)nc(N)n1 (stereo not shown) [C-112] | 600 to 2000 |
| Cc1cc(N2CCCOCC2c2ccc(CS(C)(=O)=O)cc2OC(F)(F)F)nc(N)n1 (stereo not shown) [C-113] | < 600 |
| Cc1cc(N2CCCOC[C@H]2c2cc(C)c(N)cc2Cl)nc(N)n1 [C-114] | ≥ 5000 |
| Cc1cc(N2CCCOC[C@@H]2c2cc(C)c(N)cc2Cl)nc(N)n1 [C-115] | < 600 |
| CCOc1cc(Cl)c([C@H]2COCCCN2c2cc(C)nc(N)n2)cc1Cl [C-117] | < 600 |
| Cc1cc(N2CCCOC[C@@H]2c2cc(C(F)(F)F)c(N)cc2Cl)nc(N)n1 [C-119] | < 600 |
| Cc1cc(N2CCCOCC2c2ccc(OCS(C)(=O)=O)cc2Cl)nc(N)n1 (stereo not shown) [C-120, 4-[3-(2-Chloro-4-methanesulfonylmethoxy-phenyl)-[1,4]oxazepan-4-yl]-6-methyl-pyrimidin-2-ylamine] | < 600 |
| CSCOc1ccc([C@H]2COCCCN2c2cc(C)nc(N)n2)c(Cl)c1 [C-121, 4-[(S)-3-(2-Chloro-4-methylsulfanylmethoxy-phenyl)-[1,4]oxazepan-4-yl]-6-methyl-pyrimidin-2-ylamine] | ≥ 5000 |
| CSCOc1ccc([C@@H]2COCCCN2c2cc(C)nc(N)n2)c(Cl)c1 [C-122, 4-[(R)-3-(2-Chloro-4-methylsulfanylmethoxy-phenyl)-[1,4]oxazepan-4-yl]-6-methyl-pyrimidin-2-ylamine] | < 600 |
| CC1=C(F)CN(c2ccc([C@H]3COCCCN3c3cc(C)nc(N)n3)c(Cl)c2)CC1 [C-123] | 600 to 2000 |
| Cc1cc(N2CC(O)COC[C@@H]2c2ccc(N3CCC(C)(O)CC3)cc2Cl)nc(N)n1 (stereo partly shown) [C-124] | < 600 |
| Cc1cc(N2CCCOC[C@@H]2c2cc(F)c(N3CCC(C)(O)CC3)cc2Cl)nc(N)n1 [C-125] | 600 to 2000 |
| Cc1cc(N2CCCOC[C@@H]2c2ccc(N3CCC(C)(O)CC3)c(F)c2Cl)nc(N)n1 [C-126] | 600 to 2000 |
| Cc1cc(N2CCCOC=C2c2c(O)cc(N3CCC(C)(O)CC3)cc2Cl)nc(N)n1 [C-127] | 2000 to 5000 |
| Cc1cc(N2CCCOCC2c2cc(C)c(O)cc2Cl)nc(N)n1 (stereo not shown) [C-128] | 600 to 2000 |
| Cc1cc(N2CCCOCC2c2cc3c(cc2Cl)CCCN3C)nc(N)n1 (stereo not shown) [C-129] | ≥ 5000 |
| Cc1cc(N2CCCOCC2c2cc(OC(F)(F)F)c(N)cc2Cl)nc(N)n1 (stereo not shown) [C-130] | 600 to 2000 |
| Cc1cc(N2CCCOC[C@H]2c2cc3c(cc2Cl)NC(=O)CO3)nc(N)n1 [C-131] | 600 to 2000 |
| Cc1cc(N2CCCOC[C@@H]2c2cc3c(cc2Cl)CCN3)nc(N)n1 [C-134] | < 600 |
| Cc1cc(N2CC3(CC3)COC[C@@H]2c2ccc(CS(C)(=O)=O)cc2Cl)nc(N)n1 [C-136] | ≥ 5000 |
| Cc1cc(N2C[C@H](C)COC[C@H]2c2ccc(CS(C)(=O)=O)cc2Cl)nc(N)n1 [C-139] | ≥ 5000 |
| Cc1cc(N2CCCOCC2c2cc(N)c(OC(F)(F)F)cc2Cl)nc(N)n1 (stereo not shown) [C-141] | < 600 |
| CC(=O)Nc1cc(Cl)c(N2CCCOCC2c2cc(C)nc(N)n2)cc1C (stereo not shown) [C-143] | 600 to 2000 |
| COc1cc(Cl)c([C@H]2COCCCN2c2cc(C)nc(N)n2)cc1OC(C)C [C-144] | 600 to 2000 |
| CCNc1cc(Cl)c([C@H]2COCCCN2c2cc(C)nc(N)n2)cc1C [C-146] | < 600 |
| CCOC(=O)[C@H](C)Oc1cc(Cl)c([C@@H]2COCCCN2c2cc(C)nc(N)n2)cc1OC [C-149] | 2000 to 5000 |
| CCOC(=O)[C@H](C)Oc1cc(Cl)c([C@H]2COCCCN2c2cc(C)nc(N)n2)cc1OC [C-150] | 600 to 2000 |
